Reference: article PMC9917264, “Ca^2+-Triggered Coelenterazine-Binding Protein Renilla: Expected and Unexpected Features” (International Journal of Molecular Sciences, 2023)

Molecular target: T1, coelenterazine-binding apoprotein (apoCBP) (Renilla muelleri, UniProt C9V488)
T1 construct: gene CBP1; recombinant apoprotein, single chain, 21 kDa
T1 sequence (C9V488 1-186): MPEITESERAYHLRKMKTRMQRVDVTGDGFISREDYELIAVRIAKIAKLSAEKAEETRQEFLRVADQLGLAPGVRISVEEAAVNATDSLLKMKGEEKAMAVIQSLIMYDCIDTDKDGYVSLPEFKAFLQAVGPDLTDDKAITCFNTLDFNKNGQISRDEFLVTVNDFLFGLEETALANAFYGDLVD
Experiment: absorption spectrum of the CBP complex
Settings: Ca2+-free; noncovalent

**Q.** Which “absorption spectrum of the CBP complex” value does the source give for `Oc1ccc(Cc2nc3c(Cc4ccccc4)nc(-c4ccc(O)cc4)cn3c2O)cc1` [coelenterazine] here?
**A.** The value was “FMZ-apoCBP and CBP spectra obtained under the same conditions are practically identical”.
